According to patent publication USRE38962E1, “Diphenyl-triazole derivatives and their use as anti-gestative immuno-suppressant and anti-tumoral agents” (Geange Ltd., priority 1997, dated 2006):
Marks after values point to notes of the source that are not given here.

Columns and labels:
S.D. Rats = test: Pregnancy termination activity in S.D. rats after a single subcutaneous injection at day 7 of gestation; format: in vivo, Sprague Dawley rats; conditions: single subcutaneous injection on day 7 of gestation; for ED50: Rattus norvegicus, sc, autopsy day 16, read-out: ED50 (dose terminating pregnancy, absence of live foetuses, in 50% of treated animals); for ED50 (dose terminating pregnancy in 50% of treated animals): autopsy day 16
Procedure: In particular, female Sprague Dawley rats weighing 200-230 g. were mated and the presence of sperm was detected, was considered day one of pregnancy.
Pregnancy was later confirmed at the time of autopsy by the presence of implantation sites in the uterus.
Test compounds dissolved in sesame oil containing 20% benzyl benzoate (or suspended if insoluble), were administered subcutaneously, in a single injection, on day 7 of gestation. The animals were then autopsied on day 16 of pregnancy and the uteri were examined for evidence of pregnancy (implantation sites, foetal resorption or live foetuses), haemorrhage, and evidence of abnormalities of the uterus, placenta or foetuses, for reference see G. Galliani et al. Contraception, 23, 163-180 (198).
These values identify the dose levels which terminate pregnancy (absence of live foetuses) in 50% of the treated animals.

Beagle bitches = test: Contragestational effect in Beagle bitches after a single intramuscular dose; format: in vivo; conditions: for Pregnancy arrest (%): single i.m. 5 mg/kg (11.1 μmoles/kg)
Procedure: The compound was given intramuscularly in one depot site of the thigh muscle of the right hind leg dissolved in sesame oil at the dose of 5 mg/kg (11.1 μmoles/kg , […], 0.2 mL/kg). The anti-gestative effectiveness was ascertained by exploratory laparatomy examining uterine horns where the presence of live or dead foetuses was deduced from the dimension and appearance of each uterine swelling, for methodological reference see G. Galliani et al., J. Small Animal Practice, 25, 211-222 (1984).

[1] = system: Lipo-polysaccharide (LPS); test: IgM antibody response to LPS (plaque forming cells in spleen); format: in vivo, B6D2F1 mice; conditions: antigen LPS, dosing day 0, 8.60 μmoles/Kg/day; vehicle 10 + 2; p < 0.01
Procedure: (§1) In detail, the Antibody Response to Sheep Red Blood Cells (SRBC) and to Lipo-polysaccharide (LPS), was studied in B6D2F1 mice injected intravenously 10^8 SRBC (day 0). Direct (IgM) and indirect (IgG) plaque forming cells (PFC) were evaluated in the spleen 4 and 10 days later, Jerne et al. Science 140, 405 (1963) and Dresser and Wortis, Nature, 208, 859(1965).
(§2) Indirect PCF were developed with rabbit anti-serum to mouse gamma globulin. B6D2F1 mice were immunised with 20 μg LPS intra-peritoneally. Four days later, PCF were determined in the spleen by SRBC coated with LPS, Moller, Nature, 207, 1166(1965).

[2] = system: Sheep Red Blood Cells (SRBC); test: IgG antibody response to SRBC (indirect plaque forming cells in spleen); format: in vivo, B6D2F1 mice; conditions: dosing day 0, 2.15 μmoles/Kg/day; vehicle 24 + 3
Procedure: as §1, §2

human chorio-carcinoma = test: Growth of human chorio-carcinoma transplanted into nude mice; format: in vivo
[3] = system: grafts of skin from C3H (H-2^k) donor mice; test: Skin graft survival time (C3H donor onto C57B1/6 recipient); format: in vivo, C57B1/6 mice; conditions: dosing days −1, 7, 17.20 μmols/Kg/day; vehicle 10.7 + 0.4
Procedure: For the Skin Grafting, fitted pinch, grafts of skin from C3H (H-2^k) donor mice were transplanted onto C57B1/6 (H-2^b) recipient mice (Mistrello et al,. 1984) Bandages were removed 7 days later and graft were scored daily by microscopy. Rejection was recorded when no viable epidermis remained. The median survival time (MST) of the grafts, measured as days, was calculated according to Litchfield (1949).

Acute toxicity studies = conditions: in vivo
Procedure: Acute toxicity studies did show as the lethal doses of compounds (VI), LD50>500 mg/kg, are of three order of magnitude higher than those anti-gestative.

[4] = system: Sheep Red Blood Cells (SRBC); test: IgM antibody response to SRBC (direct plaque forming cells in spleen); format: in vivo, B6D2F1 mice; conditions: antigen SRBC, dosing day 0, 8.60 μmoles/Kg/day; vehicle 124 + 18; p < 0.01
Procedure: as §1

SRBC = test: Delayed type hypersensitivity (DTH), footpad swelling; format: in vivo, C57B1/6 mice; conditions: dosing day 0, 3.60 μmoles/Kg/day; vehicle 11.4 + 3.7
Procedure: Delayed Type hypersensitivity (DTH), was carried out in C57B1/6 mice administered subcutaneously 2×10^8 SRBC emulsified in complete Freund's adjuvant. Ten days later an eliciting dose of 10^8 SRBC was inoculated into a footpad. The DTH reaction was recorded 24 hours later by measuring the footpad swelling (Kerckhaert et al, i Cell Immunology, 29, 232, (1977).

SMILES: CCCCOC(=O)OCc1ccccc1-c1n[nH]c(-c2cccc(OCC)c2)n1 [(XIV)]
- ED50 (S.D. Rats): 8 mg/kg
- ED50 (dose terminating pregnancy in 50% of treated animals) (S.D. Rats): 20.3 µmol/kg

SMILES: CCCCCCCCOC(=O)OCc1ccccc1-c1n[nH]c(-c2cccc(OCC)c2)n1 [(VI)]
- Pregnancy arrest (%) (Beagle bitches; administered day 15 of gestation): 80%
- Pregnancy arrest (%) (Beagle bitches; administered day 20 of gestation): 100%
- Pregnancy arrest (%) (Beagle bitches; administered day 25 of gestation): 100%
- Tolerability (Beagle bitches; single intramuscular dose): very well tolerated
- Anti-gestative effectiveness (Beagle bitches; single intramuscular dose between day of mating and 25th day of gestation): highly effective
- PCF/spleen.10^−3 (mean = S.D.), IgM response [1]: 3 + 1* PCF/spleen.10^−3
- PFC/SPLEEN.10^−3 (mean + S.D.), IgG response to SRBC [2]: 3 + 3* PFC/SPLEEN.10^−3
- Potency compared with methotrexate (human chorio-carcinoma; human chorio-carcinoma transplanted into nude mice): even higher than that displayed by methotrexate
- Inhibition of the growth of human chorio-carcinoma (human chorio-carcinoma; transplanted into nude mice): highly effective
- ED50 (S.D. Rats): 2 mg/kg
- ED50 (dose terminating pregnancy in 50% of treated animals) (S.D. Rats): 4.4 µmol/kg
- MST, days (mean ± S. D.), skin graft median survival time [3]: 15.1 + 0.6* days
- LD50 (Acute toxicity studies): > 500 mg/kg
- PCF/spleen.10^−3 (mean = S.D.), IgM response [4]: 12 + 3* PCF/spleen.10^−3
- FOOTPAD SWELLING UNITS (Mean + S.D.), DTH (SRBC): 5.2 + 1.2** UNITS

SMILES: CCOc1cccc(-c2n[nH]c(-c3ccccc3CO)n2)c1 [D, 5-(2-Hydroxymethylphenyl)-3-(3-ethoxy-phenyl)-1H-1,2,4-triazole, reference compound]
- ED50 (S.D. Rats): 16 mg/kg
- ED50 (dose terminating pregnancy in 50% of treated animals) (S.D. Rats): 54.6 µmol/kg

SMILES: CCCCCCOC(=O)OCc1ccccc1-c1n[nH]c(-c2cccc(OCC)c2)n1 [(XVI)]
- ED50 (S.D. Rats): 5 mg/kg
- ED50 (dose terminating pregnancy in 50% of treated animals) (S.D. Rats): 11.8 µmol/kg

SMILES: CCOC(=O)OCc1ccccc1-c1n[nH]c(-c2cccc(OCC)c2)n1 [(XV)]
- ED50 (S.D. Rats): 15 mg/kg
- ED50 (dose terminating pregnancy in 50% of treated animals) (S.D. Rats): 27.2 µmol/kg
